Earlier results as cited in paper PMC5028780, “Receptor and transporter binding and activity profiles of albiflorin extracted from Radix paeoniae Alba” (Scientific Reports, 2016).

Legend:
h5-HT2C receptors = details: reference not given; cited from earlier work
5-HT2C sites = tested on: 5-HT2C sites; parameters: method as in PMID 11454919, PMID 10621762; details: antagonist properties; cited from earlier work

Row | Structure (SMILES) | affinity for h5-HT2C receptors (h5-HT2C receptors) | affinity at 5-HT2C sites (5-HT2C sites)
1 | CCOc1ccccc1OC(c1ccccc1)C1CNCCO1 (stereo not drawn) [Reboxetine] | mild affinity | –
2 | CN(C)CCCC1(c2ccc(F)cc2)OCc2cc(C#N)ccc21 (stereo not drawn) [citalopram] | – | modest affinities
3 | CN(C)CCCN1c2ccccc2CCc2ccc(Cl)cc21 [clomipramine] | – | modest affinities
